Measurements reported in patent US6255080A, “Bacteriocins produced by ruminal bacteria” (priority 1998, dated 2001).
Entries after “also recorded” stand apart in the source; their conditions may differ.

Key:
[1] = system: a-chymotrypsin or pronase; assay: Protease sensitivity in liquid (spent culture medium or purified bacteriocin), drop test; assay type: in vitro ADME; conditions: purified bacteriocin treated prior to sample preparation
Procedure: Determination of protease sensitivity of bacteriocin-like activity in liquid cultures was carried out as follows: 10 μl of a stock solution (10 mg/ml) of each protease was added to 100 μl of either spent culture medium or the purified bacteriocin, and incubated at 37° C. for 2 hours, after which activity was assessed using a drop test (Tagg et al., 1976). Controls consisted of protease only (1 in 10 dilution) spotted directly onto an overlay containing the indicator organism.
The purity of the peptide was assessed using Triacine-sodium-dodecyl-sulphate-polyacrylamide gel electrophoresis analysis followed by silver staining. […] Protease sensitivity of the isolated bacteriocin was identical to the protease sensitivity of the inhibitor produced in the deferred plate test (see above).

[2] = system: indicator strain of B. fibrisolvens; assay: Drop (spot) test and diffusion well assay of inhibitory activity; assay type: cell-based, Butyrivibrio fibrisolvens; conditions: spot testing, peptide purified by reverse phase chromatography
Procedure: Isolates found to produce bacteriocin-like activity using the deferred plating technique were tested for the production of bacteriocin-like activity in liquid cultures. Briefly, following overnight growth in L-10 medium, a 1.0 ml sample of the culture was centrifuged to remove the cells, and a 100 μl aliquot dropped onto a sterile petri dish and sterilised by exposure to shortwave ultraviolet light for a five minute period. Bacteriocin-like activity within the uv-sterilized spent culture fluid was assayed using both a drop test and diffusion well assay (Tagg et al., 1976). All steps were carried out under anerobic conditions in a glove box.
The active component was purified by FPLC ([…] System, Pharmacia) using reverse phase chromatography. All steps were carried out at 4° C. Solvents consisted of dH2 O (buffer A) and 2-propanol (buffer B), both of which contained 0.1% trifluoroacetic acid. A 0.5 ml aliquot of the crude bacteriocin preparation containing […] was injected onto a Resource RPC 3.0 ml column (Pharmacia), washed with two column volumes of buffer A, and eluted from the column with a gradient from 100% buffer A to 100% buffer B, at a flow rate of 1.0 ml/minute. The elution was monitored at 206 nm. […]

[3] = system: indicator; assay: Effect of detergents on the indicator; assay type: cell-based
Procedure: Further increases in carbohydrate beyond 2% (w/v) had no further effect on enhancing production in liquid culture. As several bacteriocins are known to be cell associated (Jack et al., 1995), bound activity was assayed for by washing pelleted cells with various detergents (Triton X-100, Tween 80, Tween 20). […] However, both Tween 80 and Tween 20 appeared to have no detrimental efLect on the indicator at levels of up to 1.0% (v/v).

Compound: Butyrivibriocin AR10
- effect of a-chymotrypsin treatment on inhibitory activity [1]: completely eliminated inhibitory activity
- effect of pronase treatment on inhibitory activity [1]: completely eliminated inhibitory activity
- inhibitory activity of the purified peptide [2]: inhibitory activity; also recorded: inhibitory to the growth

Compound: Triton X-100
- level very detrimental to the indicator ([3]; detergent): less than 0.1 % (v/v)

Compound: CCCCCCCC/C=C\CCCCCCCC(=O)OCCOCC(OCCO)C1OCC(OCCO)C1OCCO (centres unmarked) [Tween 80]
- level with no detrimental effect on the indicator [3]: up to 1.0 % (v/v)
